Measurements: paper PMC4579270, “Identification and Characterization of an Irreversible Inhibitor of CDK2” (Chemistry & Biology, 2015)
Like-named read-outs stand apart in the source and are kept apart here.

Key:
Assay in all cases: Dundee kinase screen re-test (standard format and 4 hour pre-incubation)
Type in all cases: biochemical
[1] = target: T1, ASK1 (Homo sapiens, UniProt Q99683); conditions: ASK1, 0.5µM
T1 sequence (Q99683 1-1374): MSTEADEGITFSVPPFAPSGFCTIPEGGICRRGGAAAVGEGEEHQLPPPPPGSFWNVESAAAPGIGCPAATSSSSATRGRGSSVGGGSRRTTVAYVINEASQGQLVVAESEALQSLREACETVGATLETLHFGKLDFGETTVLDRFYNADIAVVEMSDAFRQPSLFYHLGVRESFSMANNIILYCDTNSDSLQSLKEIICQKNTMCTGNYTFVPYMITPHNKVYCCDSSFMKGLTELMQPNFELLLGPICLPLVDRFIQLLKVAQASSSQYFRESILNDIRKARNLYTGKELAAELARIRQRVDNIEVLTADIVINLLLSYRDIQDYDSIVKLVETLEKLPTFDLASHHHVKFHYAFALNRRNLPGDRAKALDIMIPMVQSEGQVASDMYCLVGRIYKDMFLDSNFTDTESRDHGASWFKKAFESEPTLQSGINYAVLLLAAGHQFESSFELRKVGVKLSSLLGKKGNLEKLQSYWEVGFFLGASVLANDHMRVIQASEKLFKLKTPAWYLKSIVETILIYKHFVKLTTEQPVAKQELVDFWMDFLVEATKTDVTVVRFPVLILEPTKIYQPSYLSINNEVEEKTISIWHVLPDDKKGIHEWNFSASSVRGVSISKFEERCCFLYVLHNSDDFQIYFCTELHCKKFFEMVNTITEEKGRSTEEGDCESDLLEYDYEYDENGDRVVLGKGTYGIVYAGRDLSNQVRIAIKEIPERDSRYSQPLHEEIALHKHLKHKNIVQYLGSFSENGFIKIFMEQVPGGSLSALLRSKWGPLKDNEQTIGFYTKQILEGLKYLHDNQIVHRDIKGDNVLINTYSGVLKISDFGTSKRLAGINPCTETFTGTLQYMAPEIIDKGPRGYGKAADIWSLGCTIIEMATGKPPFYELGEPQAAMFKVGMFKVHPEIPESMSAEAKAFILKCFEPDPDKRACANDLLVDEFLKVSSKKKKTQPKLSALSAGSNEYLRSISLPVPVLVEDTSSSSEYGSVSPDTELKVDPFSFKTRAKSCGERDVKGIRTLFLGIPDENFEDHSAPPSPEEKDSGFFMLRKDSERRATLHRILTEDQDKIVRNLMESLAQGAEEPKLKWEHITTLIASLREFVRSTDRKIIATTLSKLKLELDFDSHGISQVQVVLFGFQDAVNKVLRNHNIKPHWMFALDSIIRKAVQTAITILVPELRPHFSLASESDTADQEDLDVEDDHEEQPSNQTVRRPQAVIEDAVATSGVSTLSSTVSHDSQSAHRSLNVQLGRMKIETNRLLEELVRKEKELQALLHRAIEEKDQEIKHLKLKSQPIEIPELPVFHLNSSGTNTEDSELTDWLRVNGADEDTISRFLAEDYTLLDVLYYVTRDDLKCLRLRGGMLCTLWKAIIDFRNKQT
Method: (§1) Prior to determining its cellular activity, we carried out a screen to assess its selectivity against a panel of 131 protein kinases under conditions that would not distinguish between a reversible or irreversible mode of action. […] These 13 kinases and 29 additional kinases, selected for their known sensitivity to other inhibitors within the purine series, were then tested in a modified screening format in which the assay was repeated following a 4-hr pre-incubation (Table S3B). […] However, conformational flexibility around the active site may promote such an interaction with a residue from another part of the structure ([Martin et al., 2012]).
(§2) Table S3, Related to Figure 4. NCL-0006300 protein kinase selectivity. […]
(§3) Dundee protein kinase screen (Bain et al., 2007). […]
(§4) (B) Selected kinases were re-tested in the Dundee kinase screen against NU6300 at a single concentration of 0.5 µM both in the standard assay format and following a 4 hour pre-incubation in the presence of NU6300. Kinases which have very low activity after the 4 hour incubation so that results might not be wholly reliable are boxed in salmon. Kinases where the activity after a 4 hour pre-incubation is < 50% that in the standard assay format are highlighted in red.

[2] = target: T2, TTK (Homo sapiens, UniProt P33981)
T2 sequence (P33981 1-857): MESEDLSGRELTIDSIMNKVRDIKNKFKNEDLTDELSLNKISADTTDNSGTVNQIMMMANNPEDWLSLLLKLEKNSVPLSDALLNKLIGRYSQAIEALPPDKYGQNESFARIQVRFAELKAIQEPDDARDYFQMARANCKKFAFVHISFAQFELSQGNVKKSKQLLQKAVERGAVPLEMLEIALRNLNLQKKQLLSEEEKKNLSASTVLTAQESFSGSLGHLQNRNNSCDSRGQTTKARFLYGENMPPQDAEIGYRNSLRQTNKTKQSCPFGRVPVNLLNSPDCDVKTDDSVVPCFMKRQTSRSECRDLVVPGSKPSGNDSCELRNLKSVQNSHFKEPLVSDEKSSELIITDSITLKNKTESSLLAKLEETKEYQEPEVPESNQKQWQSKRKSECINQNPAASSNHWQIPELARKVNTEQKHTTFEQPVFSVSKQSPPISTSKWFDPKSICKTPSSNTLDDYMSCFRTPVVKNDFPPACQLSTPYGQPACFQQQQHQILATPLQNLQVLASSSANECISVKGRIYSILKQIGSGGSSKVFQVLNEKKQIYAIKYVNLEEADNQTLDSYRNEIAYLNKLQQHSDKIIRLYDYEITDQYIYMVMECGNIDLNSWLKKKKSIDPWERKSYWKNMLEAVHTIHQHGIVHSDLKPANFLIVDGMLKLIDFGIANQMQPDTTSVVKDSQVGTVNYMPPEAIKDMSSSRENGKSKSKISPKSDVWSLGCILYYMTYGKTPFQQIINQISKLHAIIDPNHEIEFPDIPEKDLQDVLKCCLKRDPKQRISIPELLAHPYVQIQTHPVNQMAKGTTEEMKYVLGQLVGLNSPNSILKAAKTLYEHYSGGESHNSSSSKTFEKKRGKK
Method: as §1, §2, §3, §4

[3] = target: MLK3 (Homo sapiens, UniProt Q16584); conditions: MLK3, 0.5µM
Method: as §1, §2, §3, §4

[4] = 4hr RT preincubation, read-out: %Remaining activity at 0.5µM NU6300 - 4hr RT preincubation
[5] = usual format, read-out: %Remaining activity at 0.5µM NU6300 - Usual assay format

Chain of MLK3 (Q16584 whole entry): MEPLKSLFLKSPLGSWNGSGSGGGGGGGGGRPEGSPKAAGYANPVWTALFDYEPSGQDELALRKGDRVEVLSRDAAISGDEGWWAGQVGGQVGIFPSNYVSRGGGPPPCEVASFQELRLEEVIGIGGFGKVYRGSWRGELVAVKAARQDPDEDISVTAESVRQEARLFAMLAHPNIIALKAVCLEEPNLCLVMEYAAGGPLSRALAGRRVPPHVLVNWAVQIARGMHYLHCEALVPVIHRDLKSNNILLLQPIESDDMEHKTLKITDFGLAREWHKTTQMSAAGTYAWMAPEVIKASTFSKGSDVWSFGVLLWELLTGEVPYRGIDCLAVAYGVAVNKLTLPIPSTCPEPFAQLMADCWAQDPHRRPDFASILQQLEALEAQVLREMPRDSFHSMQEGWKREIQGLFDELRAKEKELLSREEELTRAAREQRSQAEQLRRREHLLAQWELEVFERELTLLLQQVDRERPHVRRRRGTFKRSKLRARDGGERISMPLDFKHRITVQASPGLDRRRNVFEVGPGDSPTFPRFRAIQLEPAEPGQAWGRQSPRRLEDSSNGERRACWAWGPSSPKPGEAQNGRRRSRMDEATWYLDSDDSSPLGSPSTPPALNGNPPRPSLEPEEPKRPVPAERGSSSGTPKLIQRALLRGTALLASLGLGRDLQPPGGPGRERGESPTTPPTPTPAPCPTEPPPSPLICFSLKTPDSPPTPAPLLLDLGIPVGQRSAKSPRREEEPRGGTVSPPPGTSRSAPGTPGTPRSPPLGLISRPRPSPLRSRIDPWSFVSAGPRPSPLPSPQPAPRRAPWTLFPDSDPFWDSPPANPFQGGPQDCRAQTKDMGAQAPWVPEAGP

Question: `C=CS(=O)(=O)c1ccc(Nc2nc(OCC3CCCCC3)c3nc[nH]c3n2)cc1` [NU6300, 6-(cyclohexylmethoxy)-N-(4-(vinylsulfonyl)phenyl)-9H-purin-2-amine] was tested. Which remaining activity at 0.5 µM [1, 4] did it give?
Answer: Its remaining activity at 0.5 µM is 102%.

Question: What about the remaining activity at 0.5 µM [1, 5] of the same compound?
Answer: Its remaining activity at 0.5 µM is 89%.

Question: What about the remaining activity at 0.5 µM [2, 4] of the same compound?
Answer: Its remaining activity at 0.5 µM is 47%.

Question: What about the remaining activity at 0.5 µM [2, 5] of the same compound?
Answer: Its remaining activity at 0.5 µM is 41%.

Question: And the remaining activity at 0.5 µM [3, 4]?
Answer: Its remaining activity at 0.5 µM is 52%.

Question: And the remaining activity at 0.5 µM [3, 5]?
Answer: Its remaining activity at 0.5 µM is 5%.
